We go through 33 compounds from patent US9050345B2, “Pyrrolotriazines as potassium ion channel inhibitors” (BRISTOL-MYERS SQUIBB COMPANY, priority 2013, dated 2015).

T1 sequence (P22460 whole entry): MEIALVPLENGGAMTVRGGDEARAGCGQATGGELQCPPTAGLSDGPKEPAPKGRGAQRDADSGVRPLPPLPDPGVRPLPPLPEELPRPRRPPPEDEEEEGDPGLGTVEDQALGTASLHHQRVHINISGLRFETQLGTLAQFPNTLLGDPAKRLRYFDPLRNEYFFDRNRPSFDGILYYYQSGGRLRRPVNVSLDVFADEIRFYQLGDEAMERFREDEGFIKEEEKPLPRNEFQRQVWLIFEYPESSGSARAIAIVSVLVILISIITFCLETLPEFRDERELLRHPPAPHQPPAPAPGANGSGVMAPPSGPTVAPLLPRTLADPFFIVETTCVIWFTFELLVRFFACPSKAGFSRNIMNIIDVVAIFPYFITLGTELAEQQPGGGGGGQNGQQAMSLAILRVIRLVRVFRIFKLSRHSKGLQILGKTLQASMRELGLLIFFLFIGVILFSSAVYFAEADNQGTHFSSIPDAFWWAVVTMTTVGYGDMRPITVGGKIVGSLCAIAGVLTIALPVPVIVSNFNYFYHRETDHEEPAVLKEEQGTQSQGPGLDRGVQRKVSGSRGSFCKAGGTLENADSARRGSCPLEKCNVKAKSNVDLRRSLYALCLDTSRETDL

The first experiment has as its target T1, human KV 1.5 (IKur) (Homo sapiens, UniProt P22460).
T1 construct: expressed in transfected cells
The experiment is described as follows: block of IKur current in patch clamped L-929 cells expressing human Kv1.5. The format is cell-based. The conditions noted are these: 0.3 μM; patch clamped mammalian L-929 cells stably expressing human Kv1.5.
On to `O=C(NCC(O)CO)c1cncc(-c2nc(NCc3ccccc3)c3c(-c4ccccc4)ccn3n2)c1` (stereo not drawn) [Example 97, 5-(4-(benzylamino)-5-phenylpyrrolo [1,2-f][1,2,4]triazin-2-yl)-N-(2,3-dihydroxypropyl) nicotinamide], for which the “KV1_5% Inh L929 @0.3 μM” value came to 96.86%. Regarding `NS(=O)(=O)c1cncc(-c2nc(NCC3CCCCO3)c3c(-c4ccccc4)ccn3n2)c1` (stereo not drawn) [Example 102, 5-(5-phenyl-4-((tetrahydro-2H-pyran-2-yl)methylamino)pyrrolo[1,2-f][1,2,4]triazin-2-yl)pyridine-3-sulfonamide], the “KV1_5% Inh L929 @0.3 μM” value is on record as 98.89%.

The experiment is the same for the next values; noted with them: L929, 0.3 μM; patch clamped mammalian L-929 cells stably expressing human Kv1.5; read-out: KV1_5% Inh L929 @0.3 μM.
Turning to `O=C(O)c1ccc(-c2nc(NCc3ccccc3)c3c(-c4ccccc4)ccn3n2)cn1` [Example 82, 5-(4-(benzylamino)-5-phenylpyrrolo [1,2-f][1,2,4]triazin-2-yl) picolinic acid], the inhibition at 0.3 µM was 17.6%. On the same count and under the same terms, the value for `NS(=O)(=O)c1cncc(-c2nc(NC(c3ccccc3)C(F)(F)F)c3c(-c4ccccc4)ccn3n2)c1` (stereo not drawn) [Example 83, 5-(5-phenyl-4-(2,2,2-trifluoro-1-phenylethylamino)pyrrolo [1,2-f][1,2,4]triazin-2-yl)pyridine-3-sulfonamide] was 89.8%; that for `O=C(c1cncc(-c2nc(NCc3ccccc3)c3c(-c4ccccc4)ccn3n2)c1)N1CCOCC1` [Example 84, (5-(4-(benzylamino)-5-phenylpyrrolo [1,2-f][1,2,4]triazin-2-yl)pyridin-3-yl)(morpholino) methanone] was 85.9%; that for `COCCNC(=O)c1cncc(-c2nc(NCc3ccccc3)c3c(-c4ccccc4)ccn3n2)c1` [Example 85, 5-(4-(benzylamino)-5-phenylpyrrolo [1,2-f][1,2,4]triazin-2-yl)-N-(2-methoxyethyl) nicotinamide] was 96.3%.

As to `COC(=O)c1cccc(-c2nc(NCc3ccccn3)c3c(-c4ccccc4)ccn3n2)c1` [Example 86, methyl 3-(5-phenyl-4-(pyridin-2-ylmethylamino)pyrrolo[1,2-f][1,2,4]triazin-2-yl)benzoate], the inhibition at 0.3 µM came to 86.3%. As to `O=C(O)c1cccc(-c2nc(NCc3ccccn3)c3c(-c4ccccc4)ccn3n2)c1` [Example 87, 3-(5-phenyl-4-(pyridin-2-ylmethylamino)pyrrolo [1,2-f][1,2,4]triazin-2-yl)benzoic acid], the inhibition at 0.3 µM is 91%.

`N#Cc1cncc(-c2nc(NC(c3ccccc3)C(F)(F)F)c3c(-c4ccccc4)ccn3n2)c1` (stereo not drawn) [Example 88, 5-(5-phenyl-4-(-2-,2,2-trifluoro-1-phenylethylamino)pyrrolo [1,2-f][1,2,4]triazin-2-yl)nicotinonitrile]: the inhibition at 0.3 µM came out at 27.2%. On the same count and under the same terms, the value for `CCOC(=O)CCNC(=O)c1cncc(-c2nc(NCc3ccccc3)c3c(-c4ccccc4)ccn3n2)c1` [Example 89, ethyl 3-(5-(4-(benzylamino)-5-phenylpyrrolo [1,2-f][1,2,4]triazin-2-yl)nicotinamido) propanoate] was 97%; that for `CC1(C)OCC(CNC(=O)c2cncc(-c3nc(NCc4ccccc4)c4c(-c5ccccc5)ccn4n3)c2)O1` (stereo not drawn) [Example 90, 5-(4-(benzylamino)-5-phenylpyrrolo [1,2-f][1,2,4]triazin-2-yl)-N-((2,2-dimethyl-1,3-dioxolan-4-yl)methyl)nicotinamide] was 96%; that for `CC(=O)NS(=O)(=O)c1cncc(-c2nc(NCc3ccccc3)c3c(-c4ccccc4)ccn3n2)c1` [Example 91, N-(5-(4-(benzylamino)-5-phenylpyrrolo [1,2-f][1,2,4]triazin-2-yl)pyridin-3-ylsulfonyl)acetamide] was 61.7%. Same read-out and setting: the value for `N#Cc1cc(-c2nc(NCc3ccccc3)c3c(-c4ccccc4)ccn3n2)ccn1` [Example 92, 4-(4-(benzylamino)-5-phenylpyrrolo [1,2-f][1,2,4]triazin-2-yl) picolinonitrile] was 88.2%. On to `COc1ncc(-c2nc(NCc3ccccc3)c3c(-c4ccccc4)ccn3n2)cc1S(=O)(=O)NC(C)(C)C` [Example 93, 5-(4-(benzylamino)-5-phenylpyrrolo [1,2-f][1,2,4]triazin-2-yl)-N-tert-butyl-2-methoxypyridine-3-sulfonamide], for which the inhibition at 0.3 µM was found to be 41%. As for `COc1ncc(-c2nc(NCc3ccccc3)c3c(-c4ccccc4)ccn3n2)cc1S(N)(=O)=O` [Example 94, 5-(4-(benzylamino)-5-phenylpyrrolo [1,2-f][1,2,4]triazin-2-yl)-2-methoxypyridine-3-sulfonamide], the inhibition at 0.3 µM amounted to 95.8%. The same measure, in the same setting: the value for `O=C(NCC(O)CO)c1cncc(-c2nc(NCc3ccccc3)c3c(-c4ccccc4)ccn3n2)c1` (stereo not drawn) [Example 96, 5-(4-(benzylamino)-5-phenylpyrrolo [1,2-f][1,2,4]triazin-2-yl)-N-(2,3-dihydroxypropyl) nicotinamide] was 95.7%; that for `O=C(O)CCNC(=O)c1cncc(-c2nc(NCc3ccccc3)c3c(-c4ccccc4)ccn3n2)c1` [Example 98, 3-(5-(4-(benzylamino)-5-phenylpyrrolo [1,2-f][1,2,4]triazin-2-yl)nicotinamido) propanoic acid] was 55.3%; that for `O=C(O)/C=C/c1cncc(-c2nc(NCc3ccccc3)c3c(-c4ccccc4)ccn3n2)c1` [Example 99, (E)-3-(5-(4-(benzylamino)-5-phenylpyrrolo [1,2-f][1,2,4]triazin-2-yl)pyridin-3-yl)acrylic acid] was 92.2%. Turning to `C1=C(c2nc(NCc3ccccc3)c3c(-c4ccccc4)ccn3n2)CCOC1` [Example 100, N-benzyl-2-(3,6-dihydro-2H-pyran-4-yl)-5-phenylpyrrolo [1,2-f][1,2,4] triazin-4-amine], the inhibition at 0.3 µM was determined as 96.9%. The same measure, in the same setting: the value for `NS(=O)(=O)c1cncc(-c2nc(NCC3CCCCO3)c3c(-c4ccccc4)ccn3n2)c1` (stereo not drawn) [Example 101, 5-(5-phenyl-4-((tetrahydro-2H-pyran-2-yl)methylamino)pyrrolo [1,2-f][1,2,4]triazin-2-yl)pyridine-3-sulfonamide] was 93.6%; that for `O=C(c1cncc(-c2nc(NCc3ccccc3)c3c(-c4ccccc4)ccn3n2)c1)N(CCO)CCO` [Example 103, 5-(4-(benzylamino)-5-phenylpyrrolo[1,2-f] [1,2,4]triazin-2-yl)-N, N-bis(2-hydroxyethyl) nicotinamide] was 72.2%; that for `NS(=O)(=O)c1cncc(-c2nc(NCc3ccccn3)c3c(-c4cccc(F)c4)ccn3n2)c1` [Example 104, 5-(5-(3-fluorophenyl)-4-(pyridin-2-ylmethylamino)pyrrolo[1,2-f][1,2,4]triazin-2-yl)pyridine-3-sulfonamide] was 95.7%. Same read-out and setting: the value for `COc1ccc(-c2ccn3nc(-c4cncc(S(N)(=O)=O)c4)nc(NCc4ccccn4)c23)cc1` [Example 105, 5-(5-(4-methoxyphenyl)-4-(pyridin-2-ylmethylamino)pyrrolo[1,2-f][1,2,4]triazin-2-yl)pyridine-3-sulfonamide] was 89.3%; that for `NS(=O)(=O)c1cncc(-c2nc(NCc3ccccn3)c3c(-c4ccc(N5CCOCC5)cc4)ccn3n2)c1` [Example 106, 5-(5-(4-morpholinophenyl)-4-(pyridin-2-ylmethylamino)pyrrolo[1,2-f][1,2,4]triazin-2-yl)pyridine-3-sulfonamide] was 16%. Still for that read-out and setting: the value for `N#Cc1ccc(-c2ccn3nc(-c4cncc(S(N)(=O)=O)c4)nc(NCc4ccccn4)c23)cc1` [Example 107, 5-(5-(-4-cyanophenyl)-4-(pyridin-2-ylmethylamino)pyrrolo[1,2-f][1,2,4]triazin-2-yl)pyridine-3-sulfonamide] was 15.6%; that for `NS(=O)(=O)c1cncc(-c2nc(NCc3cccnn3)c3c(-c4ccccc4)ccn3n2)c1` [Example 108, 5-(5-phenyl-4-(pyridazin-3-ylmethylamino)pyrrolo [1,2-f][1,2,4]triazin-2-yl)pyridine-3-sulfonamide] was 72%; that for `NC(=O)c1cccc(-c2nc(NCc3ccccn3)c3c(-c4ccccc4)ccn3n2)c1` [Example 109, 3-(5-phenyl-4-(pyridin-2-ylmethylamino)pyrrolo[1,2-f][1,2,4]triazin-2-yl)benzamide] was 98.2%. With `CS(=O)(=O)Nc1cncc(-c2nc(NCc3ccccn3)c3c(-c4ccc(F)cc4)ccn3n2)c1` [Example 110, N-(5-(5-(4-fluorophenyl)-4-(pyridin-2-ylmethylamino)pyrrolo[1,2-f] [1,2,4]triazin-2-yl)pyridin-3-yl) methanesulfonamide], the inhibition at 0.3 µM stood at 81.4%.

As to `COc1ccc(-c2nc(NCc3ccccn3)c3c(-c4ccccc4)ccn3n2)cn1` [Example 111, 2-(6-methoxypyridin-3-yl)-5-phenyl-N-(pyridin-2-ylmethyl)pyrrolo[1,2-f] [1,2,4]triazin-4-amine], the inhibition at 0.3 µM came to 97%.

Regarding `NC(=O)c1ccc(-c2nc(NCc3ccccn3)c3c(-c4ccccc4)ccn3n2)cc1` [Example 112, 4-(5-phenyl-4-(pyridin-2-ylmethylamino)pyrrolo[1,2-f][1,2,4]triazin-2-yl)benzamide], the inhibition at 0.3 µM turned out to be 99%.

For `CC(=O)Nc1ccc(NC(=O)c2nc(NCc3ccccc3)c3c(-c4ccccc4)ccn3n2)cc1` [Example 113, N-(4-acetamidophenyl)-4-(benzylamino)-5-phenylpyrrolo[1,2-f] [1,2,4] triazine-2-carboxamide], the inhibition at 0.3 µM came out at 88.4%. On the same count and under the same terms, the value for `NC(=O)c1ccccc1NC(=O)c1nc(NCc2ccccc2)c2c(-c3ccccc3)ccn2n1` [Example 114, 4-(benzylamino)-N-(2-carbamoylphenyl)-5-phenylpyrrolo [1,2-f][1,2,4] triazine-2-carboxamide] was 35.2%; that for `NC(=O)c1ccc(NC(=O)c2nc(NCc3ccccc3)c3c(-c4ccccc4)ccn3n2)cc1` [Example 115, 4-(benzylamino)-N-(4-carbamoylphenyl)-5-phenylpyrrolo [1,2-f][1,2,4] triazine-2-carboxamide] was 90%.
